Assay results reported in patent US9447408B2, “Method of efficiently establishing induced pluripotent stem cells” (Kyoto University, priority 2010, dated 2016).

Legend:
[1] = tested on: Mouse embryonic fibroblasts (MEFs); experiment: iPS cell establishment from Nanog-GFP reporter MEFs, 4 genes (Oct3/4, Sox2, Klf4, c-Myc) introduced, with p38 inhibitors; type: cell-based; settings: for number of Nanog-GFP-positive colonies compared with physiological saline or DMSO: 10 μM inhibitor added on days 1 to 4 after the infection
Experimental: Mouse embryonic fibroblasts (MEFs) from a Nanog reporter mouse carrying Nanog-GFP—IRES-Puro^r [Okita K. et al, Nature 448, 313-317 (2007)] were transfected with four genes using a retrovirus to induce iPS cells.
Each retrovirus for reprogramming was prepared by transferring each of retroviral expression vectors (pMXs-Oct3/4, pMXs-Sox2, pMXs-Klf4, pMXs-cMyc:Cell, 126, 663-676 (2006)) to Plat-E cells (Morita, S. et al., Gene Ther. 7, 1063-1066) that had been seeded to a 6-well culture plate (Falcon) at 0.6×10^6 cells per well on the day before. The cells were cultured at 37° C. in the presence of 5% CO2 using DMEM/10% FCS [a culture broth prepared by adding 10% fetal calf serum to DMEM (Nacalai Tesque)]. To facilitate vector transfer, 4.5 μL of FuGene6 transfection reagent (Roche) was placed in 100 μL of Opti-MEM I Reduced-Serum Medium (Invitrogen), and the medium was allowed to stand at room temperature for 5 minutes. Subsequently, 1.5 μg of each expression vector was added, and the medium was allowed to further stand at room temperature for 15 minutes, after which they were added to the Plat-E culture broth. On day 2, the Plat-E supernatant was replaced with a fresh supply of the medium. On day 3, the culture supernatant was recovered and filtered through a 0.45 μm sterile filter (Whatman), and polybrene (Nacalai) was added at 4 μg/mL to yield a viral liquid.
Mouse embryonic fibroblasts (MEFs) were isolated from a fetal Nanog reporter mouse (13.5 days after fertilization). […] Not expressing the puromycin resistance gene as well, MEFs are susceptible to the antibiotic puromycin. As such, MEFs were seeded to a 6-well culture plate (Falcon), previously coated with 0.1% gelatin (Sigma), at 1.0×10^5 cells per well. DMEM/10% FCS served as the culture broth at 37° C. in the presence of 5% CO2. The following day, each retrovirus liquid was added, and this was followed by overnight infection to introduce the genes.
On day 1 after the viral infection, the medium for the MEFs was removed, and the cells were washed by the addition of 1 mL of PBS. After removing the PBS, 0.25% Trypsin/1 mM EDTA (Invitrogen) was added, and a reaction was carried out at 37° C. for about 5 minutes. After the cells floated up, the cells were suspended by the addition of an ES cell culture medium and 2500 cells were seeded to a 100 mm dish having mitomycin C-treated STO feeder cells seeded thereto previously. Cultivation was continued while replacing the ES cell culture medium with a fresh supply of the same medium every two days until a visible colony emerged.
To determine the effects of p38 inhibitors on the establishment of iPS cells by the introduction of the four mouse genes, cultivation was continued with the addition of 10 μM of the p38 inhibitor 5B202190, SB239063, or SB203580 (Calbiochem Company) to the medium per the schedule shown below. All these inhibitors were used in solution in DMSO. • 1. Oct3/4, Sox2, Klf4, c-Myc, each derived from mouse, saline • 2. Oct3/4, Sox2, Klf4, c-Myc, each derived from mouse, DMSO • 3. Oct3/4, Sox2, Klf4, c-Myc, each derived from mouse, SB202190 10 μM Day 1-4) • 4. Oct3/4, Sox2, Klf4, c-Myc, each derived from mouse, SB202190 10 μM (Day 1-8) • 5. Oct3/4, Sox2, Klf4, c-Myc, each derived from mouse, SB202190 10 μM (Day 9-16) • 6. Oct3/4, Sox2, Klf4, c-Myc, each derived from mouse, SB202190 10 μM (Day 1-16) • 7. Oct3/4, Sox2, Klf4, c-Myc, each derived from mouse, SB239063 10 μM (Day 1-4) • 8. Oct3/4, Sox2, Klf4, c-Myc, each derived from mouse, SB239063 10 μM (Day 1-8) • 9. Oct3/4, Sox2, Klf4, c-Myc, each derived from mouse, SB239063 10 μM (Day 9-16) • 10. Oct3/4, Sox2, Klf4, c-Myc, each derived from mouse, SB239063 10 μM (Day 1-16) • 11. Oct3/4, Sox2, Klf4, c-Myc, each derived from mouse, SB203580 10 μM (Day 1-4) • 12. Oct3/4, Sox2, Klf4, c-Myc, each derived from mouse, SB203580 10 μM (Day 1-8) • 13. Oct3/4, Sox2, Klf4, c-Myc, each derived from mouse, SB203580 10 μM (Day 9-16) • 14. […]

[2] = tested on: Human dermal fibroblasts (Tig109 line); experiment: Human iPS cell colony formation, 4 genes introduced, various p38 inhibitors; type: cell-based; settings: for number of iPS cell colonies on day 40 after the infection: no colonies in either control group
Experimental: Human dermal fibroblasts (Tig109 line) were treated using a lentivirus (pLenti6/UbC-Slc7a1) according to the method described by Takahashi, K. et al. in Cell, 131: 861-872 (2007), to express the mouse ecotropic virus receptor Slc7a1 gene. These cells (2×10^5 cells/10 cm dish) were transfected with the four genes using a retrovirus according to the method described by Takahashi, K. et al. in Cell, 131: 861-872 (2007); each compound was added per the schedule shown below. • 1. Oct3/4, Sox2, Klf4, c-Myc, each derived from human, saline • 2. Oct3/4, Sox2, Klf4, c-Myc, each derived from human, DMSO (Day 5-35) • 3. Oct3/4, Sox2, Klf4, c-Myc, each derived from human, SB202190 10 μM (Day 5-20) • 4. Oct3/4, Sox2, Klf4, c-Myc, each derived from human, SB239063 10 μM (Day 5-20) • 5. Oct3/4, Sox2, Klf4, c-Myc, each derived from human, SB202190 10 μM (Day 21-35) • 6. Oct3/4, Sox2, Klf4, c-Myc, each derived from human, SB239063 10 μM (Day 21-35) • 7. Oct3/4, Sox2, Klf4, c-Myc, each derived from human, SB202190 10 μM (Day 5-35) • 8. Oct3/4, Sox2, Klf4, c-Myc, each derived from human, SB239063 10 μM (Day 5-35) On days 24, 32, and 40 after the infection, iPS cell colonies were counted. When the four factors (Oct3/4, Sox2, Klf4, C-Myc) were combined with SB239063 added on days 5 to 20 after the infection, the number of human iPS cell colonies increased on day 24 after the infection.

Row | SMILES | number of Nanog-GFP-positive colonies compared with physiological saline or DMSO [1] | number of iPS cell colonies on day 32 after the infection ([2]; 10 μM inhibitor) | number of iPS cell colonies on day 40 after the infection ([2]; 10 μM inhibitor) | effect on iPS cell colony number on day 32, inhibitor added day 21 to day 35 ([2]; 10 μM, Day 21-35) | effect on colony count when measured on day 28 after the infection ([1]; 10 μM inhibitor on days 1 to 4, counted day 28) | colony count compared with cells treated with physiological saline or DMSO ([1]; 10 μM inhibitor on days 1 to 4 after the infection, FIG. 1) | number of human iPS cell colonies on day 24 after the infection ([2]; 10 μM added on days 5 to 20)
1 | Oc1ccc(-c2nc(-c3ccc(F)cc3)c(-c3ccncc3)[nH]2)cc1 [SB202190, 4-(4-fluorophenyl)-2-(4-hydroxyphenyl)-5-(4-pyridyl)imidazole] | increased | capable of increasing the number of iPS cell colonies | increased remarkably | remarkable effects |  |  | 
2 | COc1nccc(-c2c(-c3ccc(F)cc3)ncn2[C@H]2CC[C@H](O)CC2)n1 [SB239063, trans-1-(4-Hydroxycyclohexyl)-4-(4-fluorophenyl)-5-(2-methoxypyrimidin-4-yl)imidazole] | increased |  | two |  | remarkable | tended to increase | increased
